In this test the target is T1, Kinesin-like protein KIF11 (Homo sapiens, UniProt P52732).
T1 sequence (P52732 whole entry): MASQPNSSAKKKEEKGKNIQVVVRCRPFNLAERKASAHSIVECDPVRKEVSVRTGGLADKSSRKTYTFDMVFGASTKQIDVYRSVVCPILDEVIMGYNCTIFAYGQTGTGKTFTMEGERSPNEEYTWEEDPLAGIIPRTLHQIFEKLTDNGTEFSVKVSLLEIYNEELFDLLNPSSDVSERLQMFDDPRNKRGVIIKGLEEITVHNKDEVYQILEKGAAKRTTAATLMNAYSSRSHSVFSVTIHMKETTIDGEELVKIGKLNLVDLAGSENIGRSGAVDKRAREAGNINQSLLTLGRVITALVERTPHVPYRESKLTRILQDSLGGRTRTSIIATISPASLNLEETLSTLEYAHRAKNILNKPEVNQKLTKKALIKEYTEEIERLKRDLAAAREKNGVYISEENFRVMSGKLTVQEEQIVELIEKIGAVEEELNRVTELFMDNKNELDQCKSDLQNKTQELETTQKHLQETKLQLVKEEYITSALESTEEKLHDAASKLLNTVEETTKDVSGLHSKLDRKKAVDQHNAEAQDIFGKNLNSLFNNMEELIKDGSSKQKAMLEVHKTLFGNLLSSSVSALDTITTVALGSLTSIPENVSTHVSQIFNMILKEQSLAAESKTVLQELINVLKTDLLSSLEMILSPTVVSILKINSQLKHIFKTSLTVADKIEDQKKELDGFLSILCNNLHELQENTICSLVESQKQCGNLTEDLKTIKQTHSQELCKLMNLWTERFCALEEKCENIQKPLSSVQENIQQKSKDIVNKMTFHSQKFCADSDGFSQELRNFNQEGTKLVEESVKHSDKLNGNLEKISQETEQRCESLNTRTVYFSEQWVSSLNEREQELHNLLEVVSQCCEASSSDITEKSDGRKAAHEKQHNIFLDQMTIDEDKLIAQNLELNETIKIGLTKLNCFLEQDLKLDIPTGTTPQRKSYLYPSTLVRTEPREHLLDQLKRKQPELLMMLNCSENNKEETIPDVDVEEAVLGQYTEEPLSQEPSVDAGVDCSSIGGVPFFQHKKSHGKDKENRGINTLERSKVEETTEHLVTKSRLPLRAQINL
The test can be described thus: Inhibition of KSP.

The IC50 is the midpoint of a concentration-inhibition curve. Higher therefore signals a need for much substance. `CCNCCN1CCN(CCCN2c3ccccc3Sc3ccc(C(F)(F)F)cc32)CC1`: the IC50 is 6.6 µM.

Regarding `Oc1cccc(C(c2cc(Cl)c(O)c(Cl)c2)C(c2cc(Cl)c(O)c(Cl)c2)c2cc(Cl)c(O)c(Cl)c2)c1Cl` (centres undefined), the 50% inhibitory concentration (IC50) came out at 27 µM. Compared with the last compound, the IC50 is about 4.1-fold higher.

As for `Cc1cc2c(C(C)C)c(O)c(O)c(C=O)c2c(O)c1-c1c(C)cc2c(C(C)C)c(O)c(O)c(C=O)c2c1O` [GOSSYPOL], the IC50 worked out at 25 µM.

Regarding `CC[C@H](c1nc2cc(Cl)ccc2c(=O)n1Cc1ccccc1)N(CCCN(C)C)C(=O)c1ccc(Br)cc1`, the IC50 stood at 0.012 µM.

In turn, `CC(C)(O)C1C[C@@H](O)[C@]2(C)[C@H](CC[C@@]3(C)[C@H]2CC[C@H]2Cc4c([nH]c5ccccc45)[C@@]23C)O1` (some centres undefined) had an IC50 of 15 µM.

For `O=C(O)c1cc2c(cc1S(=O)(=O)O)C1C(C3C2C2(Cl)C(Cl)=C(Cl)C3(Cl)C2(Cl)Cl)C2(Cl)C(Cl)=C(Cl)C1(Cl)C2(Cl)Cl` (centres undefined), the 50% inhibitory concentration (IC50) was 22 µM.

`OC1CC2CCC(C1)N2CCCN1c2ccccc2Sc2ccc(Cl)cc21` (centres undefined) showed an IC50 of 5.6 µM.

With `CCCCN1C(=O)[C@@H]2Cc3c([nH]c4ccccc34)[C@@H](c3cccc(O)c3)N2C1=O`, half-maximal inhibition (IC50) was put at 0.8 µM.

Regarding `CN1Cc2c(ccc3c2CCO3)[C@@H](c2ccccc2)C1`, half-maximal inhibition (IC50) required 9.7 µM.

For the compound `Cc1ccc2c(c1C)CNCC2c1ccccc1` (centres undefined), inhibition was half-maximal at 8.23 µM (IC50).

The compound `Cc1ccc(C(=O)N(CCCN)Cc2nc3cc(Cl)ccc3c(=O)n2Cc2ccccc2)cc1` returned an IC50 of 0.28 µM. This IC50 is about 29-fold lower than that of the compound before.

Take `Oc1cccc2ccc(SSc3ccc4cccc(O)c4n3)nc12`: the half-inhibitory concentration (IC50) was found to be 145 µM.

The compound `CC(=O)N1N=C(c2cc(F)ccc2F)C[C@H]1c1ccccc1` showed an IC50 of 0.026 µM.

The compound `NCCCCCN1C(=O)[C@@H]2Cc3c([nH]c4ccccc34)[C@@H](c3cccc(O)c3)N2C1=O` gave an IC50 of 0.09 µM.

Values taken from ChEMBL document CHEMBL1140596, “Pharmacophore identification of KSP inhibitors” (Bioorg Med Chem Lett, 2007).
